A short description of data set [1]: Inhibition of PKA (unknown origin). More on the design: species or system Homo sapiens.
Data set [2] deals with Rho-associated protein kinase 2 (Homo sapiens, UniProt O75116). As to the kind of experiment: Inhibition of human recombinant 6-His-tagged ROCK2 expressed in baculovirus-infected Sf9 cells using LCB-AKRRRLSSLRA-NH2 as substrate after 25 mins by TR-FRET assay.
Data set [3] has as its target Serine/threonine-protein kinase MRCK alpha (Homo sapiens, UniProt Q5VT25). As to the kind of experiment: Inhibition of MRCKalpha (unknown origin).
Data set [4] concerns the target Mitogen-activated protein kinase 14 (Homo sapiens, UniProt Q16539). As to the kind of experiment: Inhibition of p38alpha (unknown origin).
Data set [5] concerns the target Mitogen-activated protein kinase 9 (Homo sapiens, UniProt P45984). As to the kind of experiment: Inhibition of JNK2 (unknown origin).
Data set [6] deals with Mitogen-activated protein kinase 10 (Homo sapiens, UniProt P53779). Kind of data set: Inhibition of JNK3 (unknown origin).
Sequence of Mitogen-activated protein kinase 10 (P53779 whole entry): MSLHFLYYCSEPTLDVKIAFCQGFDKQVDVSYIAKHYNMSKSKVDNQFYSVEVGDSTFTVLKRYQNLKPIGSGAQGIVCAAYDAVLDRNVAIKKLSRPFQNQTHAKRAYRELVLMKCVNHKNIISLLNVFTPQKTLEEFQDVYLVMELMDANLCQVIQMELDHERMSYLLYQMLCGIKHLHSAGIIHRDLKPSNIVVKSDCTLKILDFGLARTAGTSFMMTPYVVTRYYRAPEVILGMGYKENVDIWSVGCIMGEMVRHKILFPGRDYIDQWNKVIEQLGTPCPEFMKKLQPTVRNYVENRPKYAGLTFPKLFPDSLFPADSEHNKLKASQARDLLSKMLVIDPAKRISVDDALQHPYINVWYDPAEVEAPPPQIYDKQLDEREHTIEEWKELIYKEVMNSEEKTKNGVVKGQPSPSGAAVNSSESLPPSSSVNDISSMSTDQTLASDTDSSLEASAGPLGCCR
Data set [7] addresses Mitogen-activated protein kinase 8 (Homo sapiens, UniProt P45983). Kind of data set: Inhibition of JNK1 (unknown origin).
The next data set has as its target CYP3A4 (Homo sapiens, UniProt P08684). As to the kind of experiment: Inhibition of CYP3A4 (unknown origin) at 10 uM relative to control. The data set is classed as ADME.
Another data set deals with CYP2C9 (Homo sapiens, UniProt P11712). Kind of data set: Inhibition of CYP2C9 (unknown origin) at 10 uM relative to control. Type of data set: ADME.
Sequence of CYP2C9 (P11712 whole entry): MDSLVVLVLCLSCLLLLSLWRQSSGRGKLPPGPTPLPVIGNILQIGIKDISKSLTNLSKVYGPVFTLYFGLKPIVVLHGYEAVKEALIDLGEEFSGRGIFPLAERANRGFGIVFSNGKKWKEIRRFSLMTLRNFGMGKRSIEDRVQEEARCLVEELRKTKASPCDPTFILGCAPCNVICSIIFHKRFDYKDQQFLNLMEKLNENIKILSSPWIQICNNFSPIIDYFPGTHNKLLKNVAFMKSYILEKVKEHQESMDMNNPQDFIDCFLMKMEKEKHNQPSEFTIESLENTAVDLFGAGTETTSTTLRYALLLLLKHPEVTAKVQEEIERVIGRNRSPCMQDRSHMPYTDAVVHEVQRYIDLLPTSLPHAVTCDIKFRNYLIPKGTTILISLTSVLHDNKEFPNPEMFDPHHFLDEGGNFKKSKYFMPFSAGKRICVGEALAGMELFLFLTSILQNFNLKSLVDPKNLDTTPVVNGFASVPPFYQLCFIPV
A further data set concerns the target CYP2D6 (Homo sapiens, UniProt P10635). As to the kind of experiment: Inhibition of CYP2D6 (unknown origin) at 10 uM relative to control. Type of data set: ADME.
The target of a further data set is T1, CYP1A2 (Homo sapiens, UniProt P05177).
T1 sequence (P05177 whole entry): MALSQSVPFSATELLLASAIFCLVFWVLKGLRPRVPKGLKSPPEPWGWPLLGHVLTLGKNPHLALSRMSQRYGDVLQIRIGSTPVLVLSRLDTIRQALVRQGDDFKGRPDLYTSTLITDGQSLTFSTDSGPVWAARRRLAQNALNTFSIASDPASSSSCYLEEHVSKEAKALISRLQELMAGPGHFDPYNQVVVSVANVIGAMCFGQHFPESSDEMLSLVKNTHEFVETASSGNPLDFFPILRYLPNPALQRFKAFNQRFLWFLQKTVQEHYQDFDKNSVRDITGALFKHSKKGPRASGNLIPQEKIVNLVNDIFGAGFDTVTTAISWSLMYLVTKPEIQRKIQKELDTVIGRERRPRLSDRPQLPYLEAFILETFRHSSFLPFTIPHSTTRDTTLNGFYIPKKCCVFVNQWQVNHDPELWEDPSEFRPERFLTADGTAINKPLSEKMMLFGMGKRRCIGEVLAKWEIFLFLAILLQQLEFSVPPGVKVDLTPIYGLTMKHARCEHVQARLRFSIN
Kind of data set: Inhibition of CYP1A2 (unknown origin) at 10 uM relative to control. The data set is classed as ADME.

The nature of data set [8]: Half life in human liver microsomes. Type of data set: ADME, Microsome.
Data set [9] addresses Rho-associated protein kinase 1 (Homo sapiens, UniProt Q13464). As to the kind of experiment: Inhibition of ROCK1 (unknown origin).

Sequence of Rho-associated protein kinase 1 (Q13464 whole entry): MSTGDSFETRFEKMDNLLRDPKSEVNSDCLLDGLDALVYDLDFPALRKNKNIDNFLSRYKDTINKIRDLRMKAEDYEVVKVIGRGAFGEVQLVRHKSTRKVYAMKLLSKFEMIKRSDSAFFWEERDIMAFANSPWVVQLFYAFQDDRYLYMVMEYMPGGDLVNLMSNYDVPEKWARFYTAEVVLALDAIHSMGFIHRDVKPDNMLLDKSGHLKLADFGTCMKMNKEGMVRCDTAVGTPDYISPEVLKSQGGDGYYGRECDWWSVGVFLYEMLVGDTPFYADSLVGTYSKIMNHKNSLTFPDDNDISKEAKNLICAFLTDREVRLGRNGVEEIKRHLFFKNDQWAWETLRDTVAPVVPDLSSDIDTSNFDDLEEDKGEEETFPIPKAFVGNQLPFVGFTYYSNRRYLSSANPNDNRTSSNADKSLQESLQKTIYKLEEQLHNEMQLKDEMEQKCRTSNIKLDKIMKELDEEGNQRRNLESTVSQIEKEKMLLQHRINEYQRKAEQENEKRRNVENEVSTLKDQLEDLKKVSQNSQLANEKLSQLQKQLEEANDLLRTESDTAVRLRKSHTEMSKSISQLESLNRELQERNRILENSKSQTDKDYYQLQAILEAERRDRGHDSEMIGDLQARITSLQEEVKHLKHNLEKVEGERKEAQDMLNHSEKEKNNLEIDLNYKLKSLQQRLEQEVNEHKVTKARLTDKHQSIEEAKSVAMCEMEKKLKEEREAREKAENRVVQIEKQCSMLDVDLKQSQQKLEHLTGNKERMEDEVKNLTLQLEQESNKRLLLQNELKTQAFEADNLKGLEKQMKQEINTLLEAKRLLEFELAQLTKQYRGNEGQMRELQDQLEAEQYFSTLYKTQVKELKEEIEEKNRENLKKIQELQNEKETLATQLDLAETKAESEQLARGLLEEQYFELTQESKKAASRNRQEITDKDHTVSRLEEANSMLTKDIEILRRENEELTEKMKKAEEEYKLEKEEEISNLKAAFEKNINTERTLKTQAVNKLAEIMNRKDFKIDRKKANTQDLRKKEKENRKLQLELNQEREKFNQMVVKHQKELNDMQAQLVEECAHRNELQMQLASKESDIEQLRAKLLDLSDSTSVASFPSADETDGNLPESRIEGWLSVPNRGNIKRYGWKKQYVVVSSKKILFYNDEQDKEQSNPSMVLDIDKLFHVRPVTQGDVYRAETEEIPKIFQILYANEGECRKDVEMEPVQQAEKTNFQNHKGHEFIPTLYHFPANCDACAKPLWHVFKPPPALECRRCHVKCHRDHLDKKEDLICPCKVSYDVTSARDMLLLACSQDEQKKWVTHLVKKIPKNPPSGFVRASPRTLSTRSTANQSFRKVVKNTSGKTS
Sequence of Mitogen-activated protein kinase 14 (Q16539 whole entry): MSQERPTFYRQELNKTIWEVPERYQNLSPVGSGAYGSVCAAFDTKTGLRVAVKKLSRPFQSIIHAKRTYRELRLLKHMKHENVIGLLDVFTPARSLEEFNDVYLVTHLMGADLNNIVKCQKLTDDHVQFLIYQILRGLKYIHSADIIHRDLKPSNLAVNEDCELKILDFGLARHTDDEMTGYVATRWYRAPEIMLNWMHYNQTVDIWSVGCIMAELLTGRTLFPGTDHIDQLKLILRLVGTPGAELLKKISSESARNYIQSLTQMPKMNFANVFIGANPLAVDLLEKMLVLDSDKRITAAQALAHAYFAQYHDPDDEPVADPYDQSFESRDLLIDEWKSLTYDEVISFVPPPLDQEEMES
Sequence of Mitogen-activated protein kinase 9 (P45984 whole entry): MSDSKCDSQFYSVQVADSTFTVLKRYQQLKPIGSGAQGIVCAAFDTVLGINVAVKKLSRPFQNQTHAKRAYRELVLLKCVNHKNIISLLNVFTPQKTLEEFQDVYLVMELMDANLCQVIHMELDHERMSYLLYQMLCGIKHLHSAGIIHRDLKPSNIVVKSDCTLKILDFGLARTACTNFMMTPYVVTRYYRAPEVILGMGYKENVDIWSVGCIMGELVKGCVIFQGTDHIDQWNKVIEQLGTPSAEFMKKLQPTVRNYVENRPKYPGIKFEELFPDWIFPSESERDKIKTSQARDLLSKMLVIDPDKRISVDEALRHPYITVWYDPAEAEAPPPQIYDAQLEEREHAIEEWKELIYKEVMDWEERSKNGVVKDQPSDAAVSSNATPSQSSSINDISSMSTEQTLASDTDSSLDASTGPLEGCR
Sequence of CYP3A4 (P08684 whole entry): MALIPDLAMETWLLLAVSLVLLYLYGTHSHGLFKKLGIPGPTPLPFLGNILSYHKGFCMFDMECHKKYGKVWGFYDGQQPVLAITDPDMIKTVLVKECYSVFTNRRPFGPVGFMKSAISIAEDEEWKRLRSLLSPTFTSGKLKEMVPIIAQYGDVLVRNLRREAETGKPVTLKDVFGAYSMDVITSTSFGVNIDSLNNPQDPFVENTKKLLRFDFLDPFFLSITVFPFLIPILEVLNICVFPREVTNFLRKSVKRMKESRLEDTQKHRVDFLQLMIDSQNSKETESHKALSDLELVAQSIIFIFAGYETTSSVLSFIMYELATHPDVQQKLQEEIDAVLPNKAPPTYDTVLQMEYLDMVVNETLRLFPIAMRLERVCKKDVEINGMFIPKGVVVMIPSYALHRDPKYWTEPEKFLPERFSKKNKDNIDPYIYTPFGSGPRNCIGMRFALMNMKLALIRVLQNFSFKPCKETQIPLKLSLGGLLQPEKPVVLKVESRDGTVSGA
Sequence of CYP2D6 (P10635 whole entry): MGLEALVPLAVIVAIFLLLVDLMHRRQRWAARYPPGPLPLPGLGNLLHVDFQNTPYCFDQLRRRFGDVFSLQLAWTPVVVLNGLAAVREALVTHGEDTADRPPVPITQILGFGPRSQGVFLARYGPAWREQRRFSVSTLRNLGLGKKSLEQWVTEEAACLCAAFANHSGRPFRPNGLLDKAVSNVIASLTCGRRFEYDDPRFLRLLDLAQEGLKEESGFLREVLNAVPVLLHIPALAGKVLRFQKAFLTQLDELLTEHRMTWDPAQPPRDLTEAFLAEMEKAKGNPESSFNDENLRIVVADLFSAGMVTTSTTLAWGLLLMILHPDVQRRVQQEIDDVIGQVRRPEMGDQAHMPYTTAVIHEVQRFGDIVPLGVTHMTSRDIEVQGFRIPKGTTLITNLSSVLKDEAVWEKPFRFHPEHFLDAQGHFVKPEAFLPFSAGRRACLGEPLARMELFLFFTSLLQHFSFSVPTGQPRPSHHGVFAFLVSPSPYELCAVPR
Sequence of Mitogen-activated protein kinase 8 (P45983 whole entry): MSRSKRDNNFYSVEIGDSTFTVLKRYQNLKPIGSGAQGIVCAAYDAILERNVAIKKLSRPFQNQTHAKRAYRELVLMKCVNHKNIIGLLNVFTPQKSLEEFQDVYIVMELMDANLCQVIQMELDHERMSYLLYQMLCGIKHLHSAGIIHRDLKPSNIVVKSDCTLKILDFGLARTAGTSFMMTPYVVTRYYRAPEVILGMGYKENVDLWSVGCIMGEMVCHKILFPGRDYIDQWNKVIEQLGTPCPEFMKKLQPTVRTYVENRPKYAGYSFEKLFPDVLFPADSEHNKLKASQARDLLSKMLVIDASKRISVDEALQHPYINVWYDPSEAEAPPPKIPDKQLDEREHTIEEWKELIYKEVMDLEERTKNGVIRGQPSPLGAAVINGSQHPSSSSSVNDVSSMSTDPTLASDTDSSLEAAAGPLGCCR

For the molecule `Fc1ccc([C@@H]2CNC[C@H]2c2nc(N3CCC3)c3cc(-c4cn[nH]c4)ccc3n2)cc1`, the IC50 worked out at 443 nM in data set [1] and 71 nM in [2].
The like results for `CN(C)CCNc1nc([C@@H]2CNC[C@H]2c2ccc(F)cc2)nc2ccc(-c3cn[nH]c3)cc12` were, in that order, 884 nM and 371 nM.
`NCCC(=O)NC(c1ccc(Cl)cc1)c1nc2ccc(-c3cn[nH]c3)cc2c(=O)[nH]1` (stereo not drawn): the half-inhibitory concentration (IC50) in [1] worked out at 21 nM; in data set [2], 6 nM.
With `NCc1ccc(C(=O)NC(c2ccc(Cl)cc2)c2nc3ccc(-c4cn[nH]c4)cc3c(=O)[nH]2)cc1` (stereo not drawn), the IC50 in data set [3] is over 1000 nM; in [4], over 1000 nM; in [5], over 1000 nM; in data set [6], over 1000 nM; in data set [7], over 1000 nM; in [9] it was 22 nM. The IC50 in data set [1] came to 96 nM; in [2], 18 nM. Also, the inhibition at 10 µM is 63% against CYP3A4, 94% on CYP2C9, 96% against CYP2D6 and 90% at CYP1A2. The molecule also registered a half-life in data set [8] of 7 h.
In the case of `NCc1cccc(C(=O)NC(c2ccc(Cl)cc2)c2nc3ccc(-c4cn[nH]c4)cc3c(=O)[nH]2)c1` (stereo not drawn), the results for the IC50 in data set [1] and in data set [2] were 28 nM and 20 nM, respectively.
Consider `C[N+]1(C)C[C@@H](c2ccccc2)[C@H](c2nc3ccc(-c4cn[nH]c4)cc3c(=O)[nH]2)C1`, for which the values for the half-inhibitory concentration (IC50) in [1] and in [2] were 23 nM and 4 nM, respectively.
The matching figures for `CN(C)CCN(C)c1nc([C@H](N)Cc2cccc(F)c2)nc2ccc(-c3cn[nH]c3)cc12`: 1160 nM and 627 nM.
On to `CN(CCO)c1nc([C@H](N)Cc2cccc(F)c2)nc2ccc(-c3cn[nH]c3)cc12`, for which the IC50 in data set [1] amounted to 44 nM; in data set [2], 27 nM.
As to `CN(CCCO)c1nc([C@H](N)Cc2cccc(F)c2)nc2ccc(-c3cn[nH]c3)cc12`, the IC50 in [2] stood at 159 nM.
Turning to `CN(CCO)c1nc([C@@H](N)Cc2cccc(F)c2)nc2ccc(-c3cn[nH]c3)cc12`, the IC50 in data set [1] turned out to be 284 nM; in data set [2], 27 nM.
The matching figures for `CN(C)c1nc([C@@H](N)Cc2cccc(F)c2)nc2ccc(-c3cn[nH]c3)cc12`: 259 nM and 67 nM.
Regarding `NC(c1ccc(Cl)cc1)c1nc2ccc(-c3cn[nH]c3)cc2c(=O)[nH]1` (stereo not drawn), the half-maximal inhibitory concentration (IC50) in data set [1] was 9 nM; in [2], 10 nM.
Consider `COc1cc(-c2cn[nH]c2)cc2c(=O)[nH]c(C(N)c3ccc(Cl)cc3)nc12` (stereo not drawn), for which the IC50 in data set [1] is 14 nM; in data set [2], 9 nM.
In the case of `COc1cc(-c2cn[nH]c2)cc2c(=O)[nH]c(C(N)c3cccc(Cl)c3)nc12` (stereo not drawn), the IC50 is over 1000 nM in [3]; over 1000 nM in data set [4]; over 1000 nM in data set [5]; over 1000 nM in data set [6]; over 1000 nM in data set [7]; 8 nM in data set [9]. The half-inhibitory concentration (IC50) in data set [1] worked out at 11 nM; in data set [2] it was 8 nM. The inhibition at 10 µM was 80% at CYP3A4, 79% on CYP2C9, 63% against CYP2D6 and 54% on CYP1A2. The molecule further yielded a half-life in data set [8] of 0.85 h.
On to `O=c1[nH]c([C@@H]2CNC[C@H]2c2ccc(F)cc2)nc2ccc(-c3cn[nH]c3)cc12`, for which the values for the IC50 in data set [1] and in data set [2] were 7 nM and 2 nM, respectively.
With `O=c1[nH]c([C@@H]2CNC[C@H]2c2ccc(C(F)(F)F)cc2)nc2ccc(-c3cn[nH]c3)cc12`, the IC50 in data set [1] turned out to be 6 nM; in data set [2], 2 nM.
The matching figures for `COc1ccc([C@@H]2CN(Cc3ccccc3)C[C@H]2c2nc3ccc(-c4cn[nH]c4)cc3c(=O)[nH]2)cc1`: 117 nM and 88 nM.
On to `O=c1[nH]c([C@@H]2CN(Cc3ccccc3)C[C@H]2c2cccc(F)c2)nc2ccc(-c3cn[nH]c3)cc12`, for which the 50% inhibitory concentration (IC50) was 423 nM in data set [1] and 225 nM in data set [2].
For `O=c1[nH]c([C@@H]2CN(Cc3ccccc3)C[C@H]2c2ccccc2F)nc2ccc(-c3cn[nH]c3)cc12`, the 50% inhibitory concentration (IC50) in [1] is 233 nM; in data set [2] it was 49 nM.
As for `O=C(Cc1cccnc1)N[C@H](Cc1ccc(Cl)cc1)c1nc2ccc(-c3cn[nH]c3)cc2c(=O)[nH]1`, in data set [2], the IC50 amounted to 239 nM.
`CCN[C@H](Cc1ccc(Cl)cc1)c1nc2ccc(-c3cn[nH]c3)cc2c(=O)[nH]1`: the half-inhibitory concentration (IC50) in data set [1] is 17 nM; in [2], 14 nM.
Consider `N[C@H](Cc1ccc(F)cc1)c1nc2ccc(-c3cn[nH]c3)cc2c(=O)[nH]1`, for which the IC50 in [3] is over 1000 nM; in data set [4], over 1000 nM; in [5], over 1000 nM; in data set [6] it was over 1000 nM; in [7], over 1000 nM; in data set [9], 8 nM. The half-maximal inhibitory concentration (IC50) in data set [1] was found to be 17 nM; in [2] it was 8 nM. Further, the inhibition at 10 µM was 37% at CYP3A4, 36% against CYP2C9, 89% against CYP2D6 and 19% on CYP1A2. Besides, the half-life in data set [8] stood at 1.08 h.
In the case of `COc1cc(-c2cn[nH]c2)cc2c(=O)[nH]c([C@@H](N)Cc3cccc(F)c3)nc12`, the IC50 in data set [1] was 26 nM; in data set [2], 8 nM.
In the case of `COc1ccc(C[C@H](N)c2nc3ccc(-c4cn[nH]c4)cc3c(=O)[nH]2)cc1`, the IC50 in [3] was over 1000 nM; in data set [4] it was over 1000 nM; in data set [5], over 1000 nM; in data set [6], over 1000 nM; in [7] it was over 1000 nM; in [9] it was 16 nM. Further, the IC50 is 8 nM in data set [1] and 4 nM in data set [2]. In addition, the inhibition at 10 µM against CYP3A4 was 53%; against CYP2C9, 52%; at CYP2D6, 76%; against CYP1A2 it was 10%. In [8], the half-life was determined as 0.35 h.
For `CCOc1ccc(C[C@H](N)c2nc3ccc(-c4cn[nH]c4)cc3c(=O)[nH]2)cc1`, the IC50 in [1] turned out to be 60 nM; in data set [2], 19 nM.
The matching figures for `COc1ccc(C[C@H](N)c2nc3ccc(-c4cn[nH]c4)cc3c(=O)[nH]2)cc1OC`: 38 nM and 39 nM.
With `N[C@H](Cc1ccc(F)c(F)c1)c1nc2ccc(-c3cn[nH]c3)cc2c(=O)[nH]1`, the IC50 in [1] was 12 nM; in [2] it was 7 nM.
In the case of `N[C@H](Cc1cccc(Cl)c1)c1nc2ccc(-c3cn[nH]c3)cc2c(=O)[nH]1`, the half-inhibitory concentration (IC50) in data set [1] came out at 6 nM; in data set [2], 13 nM.
For `N[C@H](Cc1cccc(F)c1)c1nc2ccc(-c3cn[nH]c3)cc2c(=O)[nH]1`, the IC50 is 9 nM in data set [1] and 10 nM in [2].
Consider `N[C@H](Cc1cccc(C(F)(F)F)c1)c1nc2ccc(-c3cn[nH]c3)cc2c(=O)[nH]1`, for which the concentration for half-maximal inhibition (IC50) in data set [1] is 28 nM; in data set [2], 16 nM.
Take `N[C@@H](Cc1ccccc1)c1nc2ccc(-c3ccncc3)cc2c(=O)[nH]1`: the figures for the IC50 in [1] and in data set [2] were 49 nM and 52 nM, respectively.
The like results for `N[C@@H](Cc1ccccc1)c1nc2ccc(-c3cn[nH]c3)cc2c(=O)[nH]1` were, in that order, 7 nM and 12 nM.
As for `COc1ccc(C(N)c2nc3ccc(-c4c[nH]nc4C)cc3c(=O)[nH]2)cc1` (stereo not drawn), the IC50 in [2] amounted to 98 nM.
With `COc1ccc(C(N)c2nc3ccc(-c4cn[nH]c4)cc3c(=O)[nH]2)cc1` (stereo not drawn), the IC50 in [3] is over 1000 nM; in data set [4], over 1000 nM; in [5] it was over 1000 nM; in data set [6] it was over 1000 nM; in data set [7], over 1000 nM; in [9] it was 48 nM. Further, the values for the IC50 in [1] and in [2] were 20 nM and 43 nM, respectively. For the same molecule, the inhibition at 10 µM was 40% on CYP3A4, 37% against CYP2C9, 36% at CYP2D6 and -1% against CYP1A2. This molecule returned a half-life in data set [8] of 1.07 h.
`O=c1[nH]c([C@@H]2CNC[C@H]2c2ccccc2)nc2ccc(-c3ccncc3)cc12`: the IC50 in data set [1] was 29 nM; in data set [2], 23 nM.
For `Nc1nccc(-c2ccc3nc([C@@H]4CNC[C@H]4c4ccccc4)[nH]c(=O)c3c2)n1`, the 50% inhibitory concentration (IC50) is 10 nM in data set [1] and 6 nM in data set [2].
The like results for `Cc1n[nH]cc1-c1ccc2nc([C@@H]3CNC[C@H]3c3ccccc3)[nH]c(=O)c2c1` were, in that order, 7 nM and 7 nM.
The like results for `N[C@H](Cc1ccc(Cl)cc1)c1nc2ccc(-c3cn[nH]c3)cc2c(=O)[nH]1` were, in that order, 5 nM and 4 nM.

The record behind these values is ChEMBL document CHEMBL2331421, “Amino acid derived quinazolines as Rock/PKA inhibitors” (Bioorg Med Chem Lett, 2013).
